Data from PMC9891369, “Deconvoluting binding sites in amyloid nanofibrils using time-resolved spectroscopy” (Chemical Science, 2023).

Columns and labels:
[1] = molecular target: T1, amyloid-β fibrils (Aβ1–40) (Homo sapiens, UniProt P05067); assay: time-resolved photoluminescence titration, two-site fit; format: binding
T1 construct: gene APP; synthetic Aβ1–40, fibrillar

[2] = molecular target: T1, amyloid-β fibrils (Aβ1–40); assay: time-resolved photoluminescence titration, two-site non-cooperative fit; format: binding; settings: read-out: Values ^a

T1 sequence (P05067 672-711): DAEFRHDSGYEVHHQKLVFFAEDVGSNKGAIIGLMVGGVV

Structure (SMILES)	Kd [1] [µM]	Kd [2] [µM]
[Ru+2].c1ccc(-c2ccccn2)nc1.c1ccc(-c2ccccn2)nc1.c1ccc(-c2ccccn2)nc1 [[Ru(bpy)3]^2+]	4.6	
[Ru+2].c1ccc(-c2ccccn2)nc1.c1ccc(-c2ccccn2)nc1.c1cnc2c(c1)c1nc3nccnc3nc1c1cccnc12 [[Ru(bpy)2(dpqp)]^2+]		2.2 ± 0.5
